Measurements published in US20140288077A1, “SUBSTITUTED 4-PHENOXYPHENOL ANALOGS AS MODULATORS OF PROLIFERATING CELL NUCLEAR ANTIGEN ACTIVITY” (ST. JUDE CHILDREN'S RESEARCH HOSPITAL, priority 2011, published 2014).

What was measured:
[1] = system: HeLa cells; experiment: Cisplatin-induced DNA double-strand breaks (gH2Ax positive cells) by flow cytometry; format: cell-based; conditions: with cisplatin, dose-dependent, FIG. 7
[2] = system: HeLa cells; experiment: CellTiter-Glo cell viability assay with cisplatin; format: cell-based; conditions: increasing concentration of compound, 24 or 48 hours, FIG. 9
Description: Cell viability was determined using CellTiter-Glo® Luminescent Cell Viability Assay (Promega Corporation, Madison, Wis.). Cell viability assays were carried out in 384-well plates after cells were treated for 24 or 48 hours with the disclosed compounds.

[3] = system: DNA polymerase present in a CHO lysate; experiment: In vitro translesion DNA synthesis past a cisplatin adduct; format: biochemical; conditions: FIG. 8
Text: In a further experiment, an in vitro […] DNA polymerization assay was used (e.g. see Hoffman, et al., Proc Natl Acad Sci USA (1996) 93(24), 13766-9). The assay measures the ability of DNA polymerase present in a CHO lysate to catalyze synthesis of a DNA strand past a cisplatin adduct in an oligonucleotide template. The data in FIG. 8 outline the assay approach in the upper panel, and the gel electrophoresis data are shown in the lower panel. […] The negative control lanes (right side of gel image showing the levels of DMSO contributed by the compound) show not effect on DNA synthesis.

[4] = system: U2OS cells; experiment: U2OS cell viability with cisplatin and test compound (AlamarBlue, 4 days); format: cell-based; conditions: cisplatin alone up to 10 μM, FIG. 21
Description: U2OS cells were cultured in DMEM in a 384-well plate (3000 cells/20 μL per well), treated with indicated dilution of cisplatin (see FIG. 21) and each indicated test compound (15 μM; 20 μL per well in DMEM), and cultured for 4-days. AlamarBlue reagent (Invitrogen, 4 μL per well) was added and signals were read per manufacturer's recommendation. Signals of wells contains no cells and cells with no drugs served as 0% and 100% viability, respectively.

[5] = system: U2OS cells; experiment: γH2AX staining by flow cytometry, T2AA and cisplatin; conditions: single agent, 18 h, FIG. 28A
Description: For γH2AX staining, cells were cultured at 4×10^5 cells/well of 12-well plates in 1 ml of medium, treated with drugs as indicated, trypsin-lifted and stained by using the FlowCellect H2A.X DNA Damage kit (FCCH025142, Millipore) according to the manufacturer's recommendations. All samples were filtered through 40-μm nylon mesh prior to running flow cytometry.
NT, no treatment. Error bars, S.D.

[6] = system: U2OS cells; experiment: Growth of cells after treatment with cisplatin and T2AA and release (Alamar Blue); conditions: cisplatin alone up to 10 μM, FIG. 28B
Description: The cells were treated with drugs as indicated in a black (transparent flat bottom) 384-well or 96-well plate. Cellular viability was determined by using Alamar Blue reagent (Invitrogen) on an EnVision plate reader according to the manufacturer's recommendations and normalized with signal from wells of DMSO treatment=100% and of no cells=0%.
Viability of the cells was measured by Alamar Blue reagent, and signals were normalized with those of no cell well (0%) and cells with no drugs (100%). NT, no treatment. Error bars, S.D.

[7] = biological target: T1, human PCNA recombinant protein (Homo sapiens, UniProt P12004); experiment: Fluorescent polarization assay: competition with 5-FAM-labeled PL peptide for PCNA; format: binding; conditions: Table 2; inhibition of FAM-PL peptide binding to PCNA; read-out: IC50
T1 construct: The full length human PCNA; made in house; host or cells: Escherichia coli BL21(DE3)
T1 sequence (P12004 whole entry): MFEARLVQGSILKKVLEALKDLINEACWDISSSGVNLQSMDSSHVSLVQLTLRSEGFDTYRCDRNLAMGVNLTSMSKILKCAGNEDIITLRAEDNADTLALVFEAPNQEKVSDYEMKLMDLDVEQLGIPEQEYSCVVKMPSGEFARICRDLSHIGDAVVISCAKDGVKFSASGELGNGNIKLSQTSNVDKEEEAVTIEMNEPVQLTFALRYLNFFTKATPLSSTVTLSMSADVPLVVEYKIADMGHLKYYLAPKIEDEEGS
Text: To determine the binding of the disclosed compounds to the human PCNA recombinant protein, a fluorescence polarization assay was employed. The assay is based on competition between a fluorescent tracer and increasing amounts of competing compound, i.e. a disclosed compound, determined as fluorescence polarization intensity (mP). The fluorescent tracer was 5-carboxyfluorescein (5-FAM) labeled PL peptide (“FAM-PL”). […] PCNA was a recombinant protein purified using standard methods known to one skilled in the art using an expression construct obtained from Dr. Toshiki Tsurimoto, Kyusyu University, Japan.
The volumes of PCNA and FAM-PL were adjusted to ensure that the final concentration of PCNA was 200 nM and FAM-PL was 10 nM. Assays were carried out in 384 well plates in a total volume of about 20-30 μL. […] Fluorescence measurements were made immediately after dilution in the assay plate. […] FP values (P) were calculated in millipolarization units (mP),
where I∥ and I⊥ are the emission intensities recorded, respectively, in the parallel and perpendicular directions relative to the plane of excitation polarization, after background intensity correction. G-factor values (G) for the fluorescein spectral window were measured using 1 nM fluorescein.
Alternatively, the fluorescent polarization assay can be carried out as described in the following. […] Briefly, 20 μl of the assay solution was transferred into each well of a black 384-well plate using Wellmate (Matrix). […] The negative control in each plate was DMSO, whereas the positive control was unlabeled PL-peptide as a self-competitor. […] FP values were calculated in millipolarization units. All data processing was performed using in-house programs in the Pipeline Pilot (Accelrys, version 7.0.1). The quality of the primary screen was assessed by Z-prime and other screening quality metrics.

[8] = biological target: PCNA/full-length p21 interaction (Homo sapiens, UniProt P12004); experiment: Pull-down competition assay: PCNA captured by immobilized full-length p21-His6; conditions: FIG. 5, gel electrophoresis
PCNA/full-length p21 interaction, sequence (P12004 whole entry): as above
Description: A H is protein interaction pull-down kit (Thermo Scientific) was used, in which a 4:1 mixture of TBS and lysis buffer provided in the kit was used as the buffer throughout. For immobilizing p21, 100 μg of p21His6 was incubated overnight at 4° C. with 25 μl (50% suspension) of prewashed cobalt chelate resin in 500 μl of the buffer and washed with the buffer four times. […] After the mixture was incubated overnight at 4° C., the resin was washed with buffer four times, and the bound proteins were eluted with 100 μl of the buffer containing 400 mM imidazole. Each 10 μl of the eluted samples was analyzed by SDS-PAGE with Oriole fluorescent gel stain (BioRad) and a Fluor Chem imager (Alpha Innotech).

Compound: N[C@H](CO)Cc1cc(I)c(Oc2ccc(O)cc2)c(I)c1 [(S)-T2AA, (S)-4-(4-(2-amino-3-hydroxypropyl)-2,6-diiodophenoxy)phenol]
- cisplatin-induced DNA double-strand breaks (gH2Ax positive cells) [1]: at least a doubling
- cell viability for a given concentration of cisplatin [2]: greater loss of cell viability
- DNA synthesis past the cisplatin adduct (TLS product) [3]: inhibits

Compound: N.N.[Cl][Pt][Cl] [cisplatin, reference compound]
- U2OS cell growth [4]: not significantly affected
- γH2AX level (DNA damage response) [5]: significantly induced γH2AX
- U2OS cell growth [6]: not significantly affected

Compound: CS(=O)(=O)NC(=O)CCc1cc(I)c(Oc2ccc(O)cc2)c(I)c1 [MLAE-038, 3-(4-(4-hydroxyphenoxy)-3,5-diiodophenyl)-N-(methylsulfonyl)propanamide]
- IC50 [7]: 20 µM
- level of PCNA captured by His6 p21 [8]: decreased significantly

Compound: O=S(=O)(N[C@H](CO)Cc1cc(I)c(Oc2ccc(O)cc2)c(I)c1)c1ccccc1 [MLAE-058-2, (S)—N-(1-Hydroxy-3-(4-(4-hydroxyphenoxy)-3,5-diiodophenyl)propan-2-yl)benzenesulfonamide]
- IC50 [7]: 6 µM

Compound: NCc1cc(I)c(Oc2ccc(O)cc2)c(I)c1 [MLAG-082, 4-(4-(aminomethyl)-2,6-diiodophenoxy)phenol]
- IC50 [7]: 1.6 µM

Compound: CCNC(=O)Cc1cc(I)c(Oc2ccc(O)cc2)c(I)c1 [MLAG-066-3, N-ethyl-2-(4-(4-hydroxyphenoxy)-3,5-diiodophenyl)acetamide]
- IC50 [7]: 6.6 µM

Compound: COc1ccc(Oc2c(I)cc(CCC(=O)NS(C)(=O)=O)cc2I)cc1 [MLAE-036, 3-(3,5-diiodo-4-(4-methoxyphenoxy)phenyl)-N-(methylsulfonyl)propanamide]
- IC50 [7]: > 50 µM

Compound: O=C1CN(C(=O)CCc2cc(I)c(Oc3ccc(O)cc3)c(I)c2)CCN1 [MLAE-034, 4-(3-(4-(4-hydroxyphenoxy)-3,5-diiodophenyl)propanoyl)piperazin-2-one]
- IC50 [7]: > 50 µM
